test: Inhibitory concentration for heterotrimeric G protein, transducer

Question: Which IC50 does the source give for `CCC(=O)O[C@H]1[C@@H](O)[C@H](n2cnc3c(O)nc(N)nc32)O[C@@H]1COP(=O)(O)NP(=O)(O)O` here?
Answer: The IC50 was 500 µM.

Question: With `NCCOCCOc1nc(N)nc2c1ncn2C1O[C@H](COP(=O)(O)NP(=O)(O)O)[C@@H](O)[C@H]1O` (stereo partly drawn) as the compound, how does the IC50 read?
Answer: Its IC50 is greater than 1000 µM.

Question: With `Nc1nc(O)c2ncn(C3O[C@H](COP(=O)(O)NP(=O)(O)O)[C@@H](O)[C@H]3O)c2n1` (stereo partly drawn) as the compound, how does the IC50 read?
Answer: The IC50 was 12 µM.

Question: For `NCCOCCOCCn1c(N)nc2c(ncn2C2O[C@H](COP(=O)(O)NP(=O)(O)O)[C@@H](O)[C@H]2O)c1=O` (stereo partly drawn), which IC50 is on record?
Answer: Its IC50 is greater than 1000 µM.

Question: With `Nc1nc2c(ncn2[C@@H]2O[C@H](COC(=O)CP(=O)(O)O)C(O)C2O)c(=O)[nH]1` (single isomer, unassigned) as the compound, how does the IC50 read?
Answer: Its IC50 is greater than 1000 µM.

Question: For `Nc1nc(O)c2ncn(C3O[C@H](COP(=O)(O)CC(=O)O)C(O)C3O)c2n1` (single isomer, unassigned), which IC50 is on record?
Answer: The IC50 was greater than 1000 µM.

Question: Which IC50 does the source give for `Nc1nc(O)c2ncn(C3O[C@H](COC(=O)CC(=O)O)C(O)C3O)c2n1` (single isomer, unassigned) here?
Answer: The IC50 was greater than 1000 µM.

Question: For `Nc1nc2c(ncn2[C@@H]2O[C@H](COP(=O)(O)CP(=O)(O)O)C(O)C2O)c(=O)[nH]1` (single isomer, unassigned) [PHOSPHOMETHYLPHOSPHONIC ACID GUANOSYL ESTER], which IC50 is on record?
Answer: Its IC50 is greater than 1000 µM.

— ChEMBL document CHEMBL1134257, “Probing the transducin nucleotide binding site with GDP analogues” (Bioorg Med Chem Lett, 2001)
